Converted amounts (≈) assume the structure as drawn. Residues, ends and D or L forms follow the SMILES beside them. No end group written: not given here.
Experiments:
[1] = Alkyl radical scavenging activity by ESR; conditions: peptides isolated from Fraction 2
Method: In order to identify the radical scavenging ability using ESR (electron spin resonance spectrometer, JES-FA ESR, JEOL, Japan), ESR equipment owned by the Center for University-Wide Research Facilities, Jeju University was used and was in accordance with a modified version of the method by Hiramoto (1993). 20 μL of a sample was mixed with 20 μL of distilled water, 20 μL of 40 mM AAPH and 20 μL of 40 mM POBN were added to the resulting mixture, the reaction was proceeded at 37° C. for 30 minutes and the reaction solution was transferred to a capillary tube. The conditions used for analysis were as follows: central field: 3475 G, modulation width: 0.2 mT, 22 amplitude: 500 mT, scan width: 10 mT, set microwave power: 8 mW.

[2] = target: T1, angiotensin I converting enzyme (ACE) (Oryctolagus cuniculus, UniProt P12822); assay: ACE inhibition activity (modified Cushman and Cheung's method); type: biochemical, rabbit; conditions: read-out: concentration inhibiting 50% of ACE (IC50) (converted)
T1 construct: The crude enzyme solution used herein was the supernatant obtained by centrifuging; tissue Sigma-Aldrich Co; host or cells: rabbit lung (acetone powder, crude extract supernatant)
T1 sequence (P12822 34-1310): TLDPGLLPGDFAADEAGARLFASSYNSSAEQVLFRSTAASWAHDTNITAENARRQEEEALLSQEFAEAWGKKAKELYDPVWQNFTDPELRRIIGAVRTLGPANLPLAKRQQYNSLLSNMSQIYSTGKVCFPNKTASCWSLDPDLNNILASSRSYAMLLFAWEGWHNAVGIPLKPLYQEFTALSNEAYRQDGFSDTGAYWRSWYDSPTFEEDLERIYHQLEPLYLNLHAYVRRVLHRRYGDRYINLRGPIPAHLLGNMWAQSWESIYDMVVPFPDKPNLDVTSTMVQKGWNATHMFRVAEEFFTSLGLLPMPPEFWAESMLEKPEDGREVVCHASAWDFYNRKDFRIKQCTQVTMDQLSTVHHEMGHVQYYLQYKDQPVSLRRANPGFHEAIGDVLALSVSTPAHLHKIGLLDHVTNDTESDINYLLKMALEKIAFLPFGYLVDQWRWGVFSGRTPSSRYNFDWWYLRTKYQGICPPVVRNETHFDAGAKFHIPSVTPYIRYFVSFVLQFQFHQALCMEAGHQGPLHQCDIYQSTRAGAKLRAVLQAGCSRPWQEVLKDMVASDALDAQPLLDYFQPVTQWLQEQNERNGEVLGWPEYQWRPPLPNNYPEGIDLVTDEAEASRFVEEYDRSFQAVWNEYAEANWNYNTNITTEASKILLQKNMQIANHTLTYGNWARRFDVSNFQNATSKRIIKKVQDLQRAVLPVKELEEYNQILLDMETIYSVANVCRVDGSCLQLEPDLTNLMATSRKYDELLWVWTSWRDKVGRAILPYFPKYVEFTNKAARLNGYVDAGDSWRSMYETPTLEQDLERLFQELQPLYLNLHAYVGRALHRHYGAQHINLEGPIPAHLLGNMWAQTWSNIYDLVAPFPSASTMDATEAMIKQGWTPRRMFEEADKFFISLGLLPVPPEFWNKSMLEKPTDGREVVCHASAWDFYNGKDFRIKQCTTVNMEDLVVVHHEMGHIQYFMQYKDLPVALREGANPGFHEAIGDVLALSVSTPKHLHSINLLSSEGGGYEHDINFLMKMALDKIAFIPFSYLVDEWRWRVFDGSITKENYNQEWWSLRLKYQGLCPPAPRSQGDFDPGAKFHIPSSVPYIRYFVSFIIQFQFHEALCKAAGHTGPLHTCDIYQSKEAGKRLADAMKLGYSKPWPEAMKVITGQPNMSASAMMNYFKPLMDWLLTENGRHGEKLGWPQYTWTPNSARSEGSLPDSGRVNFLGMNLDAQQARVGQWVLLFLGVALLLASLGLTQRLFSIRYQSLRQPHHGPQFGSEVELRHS
Method: ACE inhibition activity was measured by a modified version of Cushman and Cheung's method. The crude enzyme solution used herein was the supernatant obtained by centrifuging (4° C., 4,000 rpm, 40 min) after extracting a rabbit lung acetone powder (Sigma-Aldrich Co.) at a concentration of 0.2 g/10 mL (w/v) and at 4° C. for 24 hours. The substrate was prepared by dissolving hippurylhistidyl-leucine ([…], Sigma-Aldrich Co.) at a concentration of 5 mg/mL (w/v) in a 0.1 M sodium borate buffer (pH 8.3) containing 0.3 M NaCl.
ACE inhibition activity was determined as follows. 50 μL of an ACE enzyme solution was added to 50 μL of a sample extract, reaction was proceeded at 37° C. for 5 minutes, 50 μL of a substrate was added thereto and the reaction was proceeded at 37° C. for 1 hour. Then, 150 μL of 1N HCl was added to stop the reaction, 750 μL of ethyl acetate was added thereto, and the mixture was stirred for 1 minute and centrifuged (3,500 rpm, 10 min) to obtain 500 μL of the supernatant. The supernatant was completely dried at 105° C. for 4 hours, 2 mL of ethyl acetate was added thereto, and the absorbance was measured at 228 nm. A control group was obtained by adding 50 μL of distilled water, instead of the sample extract.

IC50 value Alkyl radical scavenging activity [1]	IC50 [2]	Compound
68 µg/mL (≈ 136 µM)	63.8 µM	CC[C@H](C)[C@H](N)C(=O)N[C@H](C(=O)N[C@@H](CC(=O)O)C(=O)N[C@@H](CCCNC(=N)N)C(=O)O)C(C)C [IVDR, Ile-Val-Asp-Arg] (H-IVDR-OH; N-terminus and C-terminus assumed)
40 µg/mL (≈ 80.7 µM)	32.3 µM	NCCCC[C@H](NC(=O)[C@H](Cc1ccc(O)cc1)NC(=O)[C@@H](N)Cc1c[nH]c2ccccc12)C(=O)O [WYK, Trp-Tyr-Lys] (H-Trp-Tyr-Lys-OH; N-terminus and C-terminus assumed)
77 µg/mL	117 µM	VASVI [VASVI, Val-Ala-Ser-Val-Ile]

Source: patent US11541099B2, “Flounder surimi having antioxidant and antihypertensive effects and method of preparing the same” (Jeju National University Industry-Academic Cooperation …, priority 2017, dated 2023)
